Reference: patent US20220220106A1, “QUINOLINE COMPOUNDS AND PHARMACEUTICAL COMPOSITIONS AND USES THEREOF” (Academy of Military Medical Sciences, priority 2019, published 2022)

What was measured:
mTORC1 = target: T1, mTORC1 (Homo sapiens, UniProt P42345); experiment: Western blot, phosphorylation of Thr389 of p70S6K1 in RD cells (mTORC1 inhibition); assay type: cell-based; settings: 20 μM, 2 hours, Western blot (FIG. 1)
T1 construct: endogenous in cells; host or cells: RD cells
Procedure: In order to test the inhibitory activity of the synthesized compounds on the two mTOR complexes, the inhibitory activity experiments of mTORC1 and mTORC2 were carried out. Since mTORC1 and mTORC2 exerted their function by activating the phosphorylation of downstream substrates, the inhibitory activity of the compounds on mTORC1 and mTORC2 could be determined by detecting the phosphorylation levels of the Thr389 site of mTORC1 downstream substrate p70S6K1 and the Ser473 site of mTORC2 downstream substrate Akt.
Pretreatment of Compound:
(1) RD cells were cultured in DMEM medium containing 10% FBS and 1×PS (penicillin and streptomycin were at concentrations 100 IU and 100 μg/mL, respectively) at 37° C. and 5% CO2.
(2) The RD cells (5×10^5 cells/2 mL medium) were inoculated into a 6-well plate and incubated at 37° C. and 5% CO2 for 24 hours.
(3) The cells were washed once with PBS, and the cells were cultured in serum-free medium without nutrients overnight.
(4) Formulation of compounds: […]
Preparation of insulin medium: Insulin was diluted in DMEM medium containing 10% FBS and 1×PS so that the final concentration of insulin was 167 nM.
Pretreatment of compound to be tested: The compound was dissolved in DMSO so that the concentration of the test compound was 20 mM, and the compound was diluted in 167 nM insulin medium to reach a concentration of 20 μM.
Preparation of rapamycin solution: Rapamycin was dissolved in DMSO to a concentration of 10 mM, and the rapamycin was diluted in 167 nM insulin medium to reach a concentration of 20 μM.
(5) The serum-free medium in each well was removed.
(6) 2 mL of complete medium containing DMSO was added to each well as a control carrier. The final concentration of DMSO was 0.2%.
(7) 2 mL of 20 μM rapamycin solution and 20 μM the compound to be tested were added to the designated wells, respectively. The final concentration of DMSO was 0.2%.
(8) The cells were incubated for 2 hours at 37° C. and 5% CO2.
Protein extraction and concentration determination:
(1) The cells were washed once with refrigerated PBS, and then the PBS was discarded.
(2) 150 μL of cell extraction buffer (RIPA, […], catalog number: C1053) was transferred into each well to lyse the cells, and then the resulting cell solution were incubated on ice for 30 minutes.
(3) Centrifugation was performed at 14000 rpm (13000× g) for 30 minutes at 4° C.
(4) The supernatant was transferred into a new eppendorf tube, and the cell lysate was stored at −80° C. before testing.
(5) The protein concentration was determined by BCA method.
Preparation of Buffer Solutions:
(1) 100× Protease inhibitor (Beyotime, catalog number: P1005): 1 mL of redistilled water was added to the protease inhibitor and stirred gently until the solid was completely dissolved.
(2) Lysis Buffer: […] of 100× protease inhibitor and 2× phosphatase inhibitor Cocktails PhosSTOP (Beyotime, catalog number: P1082) were added to 100 mL of the cell extract, and stirred gently until it was completely dissolved.
(3) Electrophoresis Running Buffer:
10×MOPS buffer: 52.33 g of MOPS, 30.29 g of Tris base, 10 mL of 0.5 mol/L EDTA (pH 8.5) and 5 g of SDS was dissolved in 400 mL of redistilled water, stirred to dissolve, and the pH was adjusted to 7.5, then redistilled water was added again to reach a volume of 500 mL; 1×MOPS: 100 mL of 10×MOPS was diluted with redistilled water to 1000 mL.
(4) 1× Transfer Buffer: […] of 10× transfer buffer (144 g of glucine, 30.3 g of trisbase, and distilled water were mixed to reach a volume of 1 L) and 400 mL of methanol were dissolved in 1500 mL of redistilled water, and then the redistilled water was added to reach a volume of 2000 mL. […]

[1] = system: Enterovirus 71 (EV71) H strain; experiment: In vitro anti-EV71 activity (antiviral activity in RD cells, CellTiter-Glo); assay type: cell-based; settings: for IC50: Enterovirus A, 96 h, EV71 H strain, RD cells, 4 days, CellTiter-Glo, read-out: IC50
How it was run: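 RD cells infected with 100TCID50 EV71 in DMEM+2% FBS, with compound in 10-point three-fold dilutions, cultured 4 days at 37° C. Cell viability by CellTiter-Glo luminescence; inhibition rate relative to cell control fitted to S-curve for IC50. TD50 derived likewise; SI=TD50/IC50.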

Compound | p70 phosphorylation expression level (mTORC1) | IC50 [1] | in vitro anti-EV71 activity, in words ([1]; EV71, RD cells)
CCC(=O)Nc1ccc(-c2ccc3ncc4ccc(=O)n(-c5cccc(C(F)(F)F)c5)c4c3c2)cn1 [HTL-6-45, 9-[3-(6-propionylamino)pyridyl]-2-oxo-1-[3-(trifluoromethyl)phenyl]-1,2-dihydrobenzo[h][1,6]naphthyridine] | significantly down-regulate | 27 ± 10 nM | 
COc1cc(-c2ccc3ncc4ccc(=O)n(-c5cccc(C(F)(F)F)c5)c4c3c2)cnc1N [HTL-7-19, 9-[3-(6-amino-5-methoxy)pyridyl]-2-oxo-1-[3-(trifluoromethyl)phenyl]-1,2-dihydrobenzo[h][1,6]naphthyridine] | significantly down-regulate | 45 ± 10 nM | 
O=C1Cc2cc(-c3ccc4ncc5ccc(=O)n(-c6cccc(C(F)(F)F)c6)c5c4c3)ccc2N1 [HTL-7-04, 9-[5-(2-oxo)indolyl]-2-oxo-1-[3-(trifluoromethyl)phenyl]-1,2-dihydrobenzo[h][1,6]naphthyridine] | significantly down-regulate | 10500 ± 560 nM | 
Nc1cccc(Nc2ccc3ncc4ccc(=O)n(-c5cccc(C(F)(F)F)c5)c4c3c2)c1 [HTL-6-11, 9-(3-aminophenyl)imino-2-oxo-1-[3-(trifluoromethyl)phenyl]-1,2-dihydrobenzo[h][1,6]naphthyridine] | significantly down-regulate | 890 nM | moderate activity
CN(C)c1ccc(-c2ccc3ncc4ccc(=O)n(-c5cccc(C(F)(F)F)c5)c4c3c2)cn1 [HTL-7-16, 9-[3-(6-N,N-dimethyl)pyridyl]-2-oxo-1-[3-(trifluoromethyl)phenyl]-1,2-dihydrobenzo[h][1,6]naphthyridine] | significantly down-regulate | 90 ± 10 nM | 
O=c1ccc2cnc3ccc(C4=CCC5(CC4)OCCO5)cc3c2n1-c1cccc(C(F)(F)F)c1 [HTL-7-13, 9-(1,4-dioxa-spiro[4.5]dec-7-en-8-yl)-2-oxo-1-[3-(trifluoromethyl)phenyl]-1,2-dihydrobenzo[h][1,6]naphthyridine] | significantly down-regulate | 26300 ± 12900 nM | 
O=C(Nc1ccc(-c2ccc3ncc4ccc(=O)n(-c5cccc(C(F)(F)F)c5)c4c3c2)cn1)OCc1ccccc1 [HTL-7-14, 9-[3-(6-benzyloxyamido)pyridyl]-2-oxo-1-[3-(trifluoromethyl)phenyl]-1,2-dihydrobenzo[h][1,6]naphthyridine] | significantly down-regulate | 23700 ± 1020 nM | 
O=c1ccc2cnc3ccc(-c4ccc(F)nc4)cc3c2n1-c1cccc(C(F)(F)F)c1 [HTL-7-01, 9-[3-(6-fluoro)pyridyl]-2-oxo-1-[3-(trifluoromethyl)phenyl]-1,2-dihydrobenzo[h][1,6]naphthyridine] | significantly down-regulate | 70 ± 10 nM | 
